Results published in patent US12268632B2, “Self-retaining implantable drug delivery device” (GoldenBiotech, LLC, priority 2018, dated 2025).

What was measured:
Type in all cases: physicochemical
[1] = Physical appearance and durometer mechanical properties of drug-loaded silicone polymer matrix test samples
Source text: To test the loading capacity of a silicone elastomer polymer matrix for a prostaglandin analogue, polymer matrix with different amounts and types of a prostaglandin analogue were made and the physical and mechanical properties of the resulting polymerized drug-loaded matrix were characterized (Tables 1-3). These polymer matrix test samples were made by mixing together a prostaglandin analogue, a liquid cyclic vinyl siloxane elastomer, a crosslinker, and a catalyst using a high-speed mixer and then heated the capped container at 70° C. for 24 hours to cure the mixture. A filler, such as a fumed silica, was also used to provide sufficient mechanical strength to the polymerized matrix. In addition, an inhibitor was used to slow the crosslinking reaction to a workable rate. The resulting thin-disc-shaped drug-loaded polymer matrix was allowed to cool to room temperature and then placed in 4° C. for 24 hours to increase stiffness of the material. The physical appearance of each drug-loaded polymer matrix test sample was examined visually and its mechanical properties analyzed using a durometer.

[2] = Chemical stability of prostaglandin analogues in PBS, RPHPLC; conditions: PBS at pH 4, 7 and 10 and at 4° C., 33° C. and 50° C.
Experimental: The chemical stability of prostaglandin analogues was also examined. In these experiments, a prostaglandin analogue was incubated in phospho-buffered saline (PBS) at pH 4, 7 and 10 and at 4° C., 33° C. and 50° C. representing long term storage, eye temperature and accelerate temperature conditions respectively. Analyses were performed by RPHPLC as described in Example 2, noting any hydrolysis products formed. […] This stability is most likely due to the amide linkage in bimatoprost which is much more hydrolytically stable than the ester linkage in latanoprost and travoprost.

[3] = Korsmeyer-Peppas analysis of drug release (log percent released vs log time)
Experimental: To confirm the results obtained based on the Higuchi equation analysis, the data above was also analyzed using the Korsmeyer-Peppas plot, which evaluates the mechanism of drug release by plotting the log of percent drug released over the log time in hours. If n equals 0.45, then Fickian diffusion is indicated for a cylinder (0.42 for cylinder of low aspect ratio). […] As exemplified FIG. 11, data is plotted as the log of cumulative percent drug released on the y-axis and the log time in hours on the x-axis.

[4] = In vitro drug release from drug-loaded silicone polymer matrix in PBS pH 7.4 at 37° C., RPHPLC; conditions: uncoated silicone polymer matrix loaded with 10% latanoprost, FIG. 5
Experimental: To test the controlled release properties of the disclosed drug-loaded silicone polymer matrices, the effects of a coating were examined. In these experiments, test samples were made as described in Example 1 to produce thin-disc-shaped drug-loaded polymer matrix. From this material, test samples were prepared by 1) cutting out rectangular polygons of about 3 mm length, about 1 mm width and about 1 mm height were cut from polymerized drug-loaded material; or 2) cutting out cylindrical plugs of about 3 mm length and having a diameter of about 0.5 mm to about 1 mm. The weight of the test samples was in the range of about 0.1 mg to about 4 mg.
These cut test samples were then coated using one of three procedures. […]
To examine the drug release properties of a test sample, each sample was placed in 2 mL Eppendorf tube containing 1.5 mL of Phosphate Buffered Saline, pH 7.4 (PBS). […] An aliquot of the removed PBS was then analyzed by reversed phase HPLC (RPHPLC) to determine the amount of drug released from the test sample during the incubation period. […] Peak detection and quantitation were determined by establishing a calibration curve using known amounts of each drug tested and the amount of drug present in the test sample aliquot interpolated from this calibration curve using ChemStation software.

[5] = Higuchi equation analysis of drug release (cumulative release vs square root of time); conditions: coated drug-loaded silicone polymer matrices
Experimental: In order to ascertain whether the mechanism of drug release was based on diffusion, data obtained from various coated silicone polymer matrices were analyzed using the Higuchi equation. This analysis determines the degree of proportionality between the cumulative amount of drug released and the square root of time (SQRT). […] As exemplified FIG. 10, data is plotted as the square root of time taken on the x-axis and the cumulative percentage of drug release on the y-axis.

[6] = Release from post-loaded travoprost section of the implantable device; conditions: post loaded 3 mm section, uncoated, at 38 days
Experimental: A central section of a self-retaining implantable drug delivery device disclosed herein was loaded with travoprost by cutting a 3 mm section of the device and then placed into 0.200 ml of hexanes for 3 hours. Following this period, the self-retaining implantable drug delivery device was placed immediately into 0.050 mL of a travoprost stock solution 25 mg/mL in ethanol and allowed to stand overnight. The following day, this section was washed sequentially by dipping into a water bath, followed by a 10% acetonitrile bath. It was dried at 80 C and set to release the following day. The section was allowed to release over a period of 38 days. The loading was determined to be approximately 13 mcg. […] This release profile is predicted by the Higuchi mechanism. This type of loading procedure we term post loading. The loaded section is coated with a poly(p-xylylene) polymer and two tiny holes are placed completely through the section. The section is then molded together with the two flanking sections of the stent to form the final product. The release from this modified stent follows a near zero order release in vitro and in vivo in preclinical animal models and clinical studies.

[7] = Drug Loading 5%, coated drug-loaded silicone polymer matrices
[8] = Drug Loading 10%, coated drug-loaded silicone polymer matrices
[9] = Drug Loading 15%, coated drug-loaded silicone polymer matrices
[10] = Drug Loading 20%, coated drug-loaded silicone polymer matrices
[11] = Drug Loading 2.5%, coated drug-loaded silicone polymer matrices

| SMILES | amount that would not produce a satisfactory drug-loaded silicone polymer matrix [1] [%] | physical appearance of silicone polymer matrix ([1]; 25% test sample) | chemical stability (hydrolysis) [2] | Average n Values (Korsmeyer-Peppas) [3, 7] | Average n Values (Korsmeyer-Peppas) [3, 8] | Average n Values (Korsmeyer-Peppas) [3, 9] | Average n Values (Korsmeyer-Peppas) [3, 10] | Average n Values (Korsmeyer-Peppas) ([3]; Mean over drug loadings) | release profile [4] | Average Linear Regression r^2 Value (Higuchi) ([5]; Drug Loading 5%) | Average Linear Regression r^2 Value (Higuchi) ([5]; Drug Loading 10%) | Average Linear Regression r^2 Value (Higuchi) ([5]; Drug Loading 15%) | Average Linear Regression r^2 Value (Higuchi) ([5]; Drug Loading 20%) | physical appearance of silicone polymer matrix ([1]; 15% and 20% test samples) | Average n Values (Korsmeyer-Peppas) [3, 11] | amount released [6] [%] | Average Linear Regression r^2 Value (Higuchi) ([5]; Drug Loading 2.5%) | physical appearance of silicone polymer matrix ([1]; 20% test sample) | Average n Values (Korsmeyer-Peppas) ([3]; Drug Loading 1%, coated drug-loaded silicone polymer matrices) | Average Linear Regression r^2 Value (Higuchi) ([5]; Drug Loading 1%) |
| --- | --- | --- | --- | --- | --- | --- | --- | --- | --- | --- | --- | --- | --- | --- | --- | --- | --- | --- | --- | --- |
| CC(C)OC(=O)CCC/C=C\C[C@@H]1[C@@H](CC[C@@H](O)CCc2ccccc2)[C@H](O)C[C@@H]1O [Latanoprost, latanoprost] | ≥ 25 | exhibited more elasticity but had a surface with tacky attributes and a consistency that was not fully homogeneous | travoprost was significantly more stable than latanoprost | 0.504± | 0.501± | 0.712± | 1.200± | 0.57 ± 0.16 | rapid release of the drug over the first five days, which then tapers off and by day 12 shows no further significant release | 0.964 | 0.983 | 0.990 | 0.990 |  |  |  |  |  |  |  |
| CC(C)OC(=O)CCC/C=C\C[C@@H]1[C@@H](/C=C/[C@@H](O)COc2cccc(C(F)(F)F)c2)[C@H](O)C[C@@H]1O [Travoprost, travoprost] | ≥ 15 |  | had the requisite stability | 0.507± | 0.453± |  |  | 0.50 ± 0.09 |  | 0.972 | 0.941 |  |  | exhibited more elasticity but had surfaces with tacky attributes and a consistency that was not fully homogeneous | 0.543± | 99 | 0.976 |  |  |  |
| CCNC(=O)CCC/C=C\C[C@@H]1[C@@H](/C=C/[C@@H](O)CCc2ccccc2)[C@H](O)C[C@@H]1O [Bimatoprost, bimatoprost] | ≥ 20 |  | the most stable | 0.411± | 0.377± | 0.380± | 0.601± | 0.37 ± 0.08 |  | 0.997 | 0.988 | 0.994 | 0.972 |  | 0.372± |  | 0.995 | brittle and contained clumps of unincorporated components from the mixture | 0.326± | 0.992 |
